Results taken from patent US11407781B2, “Equatorially modified polymer linked multimers of guanosine-3′, 5′-cyclic monophosphates” (GRAYBUG VISION, INC., priority 2016, dated 2022).

Test: Determination of lipophilicity by RP-18 HPLC retention (log k′g)
Type: physicochemical
Details: RP-18 reversed phase HPLC, gradient elution, ion pair chromatography with triethylammonium cation
Description: Lipophilicity information is thus often only obtained by fragment analysis and corresponding calculations.
An established HPLC method, which is based on retention data on RP-18 reversed phase silica during gradient elution, was used for the determination of lipohilicity.
Instead of log P the method yields the descriptor log k′g, ranking analytes according to their lipophilicity on a logarithmic scale as well. Since charged molecules such as cyclic nucleotides have only hardly any retention on reversed phases, ion pair chromatography with the lipophilic triethylammonium cation is used.

## CC(C)c1ccc(Sc2nc3c(=O)n4cc(-c5ccccc5)[nH]c4nc3n2[C@@H]2O[C@@H]3CO[P@@](=O)(S)O[C@H]3[C@H]2O)cc1 (single isomer, unassigned) [Compound 35, 8-(4-Isopropylphenylthio)-β-phenyl-1,N^2-ethenoguanosine-3′,5′-cyclic monophosphorothioate, Rp-isomer]
  log k′g: 3.815
